Assay results reported in ChEMBL document CHEMBL1156451 (J Biol Chem, 2007).
Converted amounts (≈) assume the structure as drawn. The source made the active and inactive calls. The calls are words filed in the database; no cut-off is given here. Where a SMILES comes first, the peptide text is derived from it.

Experiments:
[1] = tested on: Bordetella bronchiseptica; experiment: Antibacterial activity against Bordetella bronchiseptica CUN 11844-99 after 24 hrs in Mueller-Hinton broth medium; assay type: functional
[2] = tested on: Pseudomonas aeruginosa; experiment: Antibacterial activity against Pseudomonas aeruginosa CUN 4158-02 after 24 hrs in Mueller-Hinton broth medium; assay type: functional
[3] = tested on: Brucella abortus; experiment: Antibacterial activity against Brucella abortus 9.19 (per-) after 24 hrs in Mueller-Hinton broth medium; assay type: functional
[4] = Toxicity in human erythrocytes assessed as hemolysis at 100 ug/ml; assay type: cell-based, Erythrocyte; conditions: read-out: Activity
[5] = tested on: Brucella abortus; experiment: Antibacterial activity against Brucella abortus 9.49 (per-) after 48 hrs in Mueller-Hinton broth medium; assay type: functional
[6] = tested on: Acinetobacter baumannii; experiment: Antibacterial activity against Acinetobacter baumannii ATCC 19606 after 24 hrs in Mueller-Hinton broth medium; assay type: functional
[7] = tested on: Escherichia coli; experiment: Antibacterial activity against Escherichia coli K12 ATCC 23716 after 24 hrs in Mueller-Hinton broth medium; assay type: functional
[8] = tested on: Escherichia coli; experiment: Antibacterial activity against Escherichia coli K12 ATCC 23716 in 10% Luria-Bertani medium/90% Hepes buffer at pH 7.0; assay type: functional
[9] = tested on: HeLa; experiment: Cytotoxicity against human HeLa cells at 100 ug/ml after 24 hrs by MTT assay relative to control; assay type: functional
[10] = tested on: Escherichia coli; experiment: Antibacterial activity against Escherichia coli ATCC 25922 after 24 hrs in Mueller-Hinton broth medium; assay type: functional
[11] = tested on: Staphylococcus aureus; experiment: Antibacterial activity against methicillin-resistant Staphylococcus aureus ATCC 43300 after 24 hrs in Mueller-Hinton broth medium; assay type: functional

| Compound | MBC [1] [µg/mL] | MIC [1] [µg/mL] | MBC [2] [µg/mL] | MIC [2] [µg/mL] | MBC [3] [µg/mL] | hemolysis at 100 ug/ml [4] [%] | MIC [5] [µg/mL] | MBC ([6]; ATCC 19606, 24 h) [µg/mL] | MIC ([6]; ATCC 19606, 24 h) [µg/mL] | MBC ([7]; K12, 24 h) [µg/mL] | MIC ([7]; K12, 24 h) [µg/mL] | MBC [8] [µg/mL] | MIC [8] [µg/mL] | Activity [9] | MBC ([10]; ATCC 25922, 24 h) [µg/mL] | MIC ([10]; ATCC 25922, 24 h) [µg/mL] | MBC ([11]; ATCC 43300, 24 h) [µg/mL] | MIC ([11]; ATCC 43300, 24 h) [µg/mL] | further results |
| --- | --- | --- | --- | --- | --- | --- | --- | --- | --- | --- | --- | --- | --- | --- | --- | --- | --- | --- | --- |
| CC[C@H](C)[C@H](N)C(=O)N[C@@H](CO)C(=O)N[C@@H](CCCCN)C(=O)N[C@@H](CCCNC(=N)N)C(=O)N[C@H](C(=O)N[C@@H](CC(C)C)C(=O)N[C@H](C(=O)NCC(=O)N[C@@H](CCCCN)C(=O)N[C@@H](CCCCN)C(=O)O)[C@@H](C)O)[C@@H](C)CC (H-ISKRILTGKK-OH) | > 256 | > 256 | > 256 | > 256 | > 256 | < 5 | > 64 | > 256 | > 256 | > 256 | > 256 | > 200 | > 200 | inactive | > 256 | > 256 | > 256 | > 256 |  |
| CC[C@H](C)[C@H](NC(=O)[C@H](CCCCN)NC(=O)[C@H](CCCCN)NC(=O)[C@H](CO)NC(=O)[C@@H](NC(=O)CNC(=O)[C@H](CC(C)C)NC(=O)[C@@H](NC(=O)[C@@H](N)CCCCN)[C@@H](C)CC)C(C)C)C(=O)N[C@@H](CCSC)C(=O)N[C@@H](CCCNC(=N)N)C(=O)N[C@@H](CCCNC(=N)N)C(=O)N[C@H](C(=O)N[C@@H](CO)C(=O)N[C@@H](CCCCN)C(=O)N[C@@H](CC(=O)O)C(=O)N[C@H](C(=O)N[C@@H](CC(C)C)C(=O)N[C@H](C(=O)NCC(=O)N[C@@H](CCCCN)C(=O)N[C@@H](CCCCN)C(N)=O)[C@@H](C)O)[C@@H](C)CC)[C@@H](C)CC (H-KILGVSKKIMRRISKDILTGKK-NH2) | 2 (≈ 0.796 µM) | 2 (≈ 0.796 µM) | 64 (≈ 25.5 µM) | 32 (≈ 12.7 µM) | > 256 | < 5 | 16 (≈ 6.37 µM) | 16 (≈ 6.37 µM) | 16 (≈ 6.37 µM) | 16 (≈ 6.37 µM) | 16 (≈ 6.37 µM) | 12.5 (≈ 4.98 µM) | 6.25 (≈ 2.49 µM) | inactive | 32 (≈ 12.7 µM) | 32 (≈ 12.7 µM) | > 256 | > 256 |  |
| CC[C@H](C)[C@H](NC(=O)[C@H](CCCNC(=N)N)NC(=O)[C@H](CCCCN)NC(=O)[C@H](CO)NC(=O)[C@@H](NC(=O)CNC(=O)[C@H](CC(C)C)NC(=O)[C@@H](NC(=O)[C@@H](N)CCCCN)[C@@H](C)CC)C(C)C)C(=O)N[C@@H](CC(C)C)C(=O)N[C@H](C(=O)NCC(=O)N[C@@H](CCCCN)C(=O)N[C@@H](CCCCN)C(N)=O)[C@@H](C)O (H-KILGVSKRILTGKK-NH2) | > 256 | 256 (≈ 166 µM) | > 256 | > 256 | > 12.8 | < 5 | > 128 | > 256 | > 256 | > 256 | 256 (≈ 166 µM) | > 100 | 50 (≈ 32.5 µM) | inactive | > 256 | > 256 | > 256 | > 256 |  |
| CC[C@H](C)[C@H](NC(=O)[C@H](CCCCN)NC(=O)[C@H](CCCCN)NC(=O)[C@H](CO)NC(=O)[C@@H](NC(=O)CNC(=O)[C@H](CCCNC(=N)N)NC(=O)[C@H](CC(C)C)NC(=O)[C@@H](NC(=O)[C@@H](N)CCCCN)[C@@H](C)CC)C(C)C)C(=O)N[C@@H](CCSC)C(=O)N[C@@H](CCCNC(=N)N)C(=O)N[C@@H](CCCNC(=N)N)C(=O)N[C@H](C(=O)N[C@@H](CC(C)C)C(=O)N[C@H](C(=O)NCC(=O)N[C@@H](CCCCN)C(=O)N[C@@H](CCCCN)C(N)=O)[C@@H](C)O)[C@@H](C)CC (H-KILRGVSKKIMRRILTGKK-NH2) | 4 (≈ 1.8 µM) | 4 (≈ 1.8 µM) | 32 (≈ 14.4 µM) | 32 (≈ 14.4 µM) | 128 (≈ 57.5 µM) | < 5 | 64 (≈ 28.8 µM) | 2 (≈ 0.899 µM) | 2 (≈ 0.899 µM) | 64 (≈ 28.8 µM) | 64 (≈ 28.8 µM) | 32 (≈ 14.4 µM) | 16 (≈ 7.19 µM) | inactive | 32 (≈ 14.4 µM) | 32 (≈ 14.4 µM) | > 256 | > 256 |  |
| CC[C@H](C)[C@H](NC(=O)[C@H](CCCCN)NC(=O)[C@H](CCCCN)NC(=O)[C@H](CO)NC(=O)[C@@H](NC(=O)CNC(=O)[C@H](CCCNC(=N)N)NC(=O)[C@H](CC(C)C)NC(=O)[C@@H](NC(=O)[C@@H](N)CCCCN)[C@@H](C)CC)C(C)C)C(=O)N[C@@H](CCSC)C(=O)N[C@@H](CCCNC(=N)N)C(=O)N[C@@H](CCCNC(=N)N)C(=O)N[C@H](C(=O)N[C@@H](CO)C(=O)N[C@@H](CCCCN)C(=O)N[C@@H](CC(=O)O)C(=O)N[C@H](C(=O)N[C@@H](CC(C)C)C(=O)N[C@H](C(=O)NCC(=O)N[C@@H](CCCCN)C(=O)N[C@@H](CCCCN)C(N)=O)[C@@H](C)O)[C@@H](C)CC)[C@@H](C)CC (H-KILRGVSKKIMRRISKDILTGKK-NH2) | 1 (≈ 0.375 µM) | 1 (≈ 0.375 µM) | 16 (≈ 6 µM) | 16 (≈ 6 µM) | > 128 | < 5 | 4 (≈ 1.5 µM) | 8 (≈ 3 µM) | 8 (≈ 3 µM) | 16 (≈ 6 µM) | 16 (≈ 6 µM) | 25 (≈ 9.37 µM) | 12.5 (≈ 4.68 µM) | inactive | 64 (≈ 24 µM) | 16 (≈ 6 µM) | > 256 | > 256 |  |
| CC[C@H](C)[C@H](NC(=O)[C@H](CCCCN)NC(=O)[C@H](CCCCN)NC(=O)[C@H](CO)NC(=O)[C@@H](NC(=O)CNC(=O)[C@H](CCCNC(=N)N)NC(=O)[C@H](CC(C)C)NC(=O)[C@@H](NC(=O)[C@@H](N)CCCCN)[C@@H](C)CC)C(C)C)C(=O)N[C@@H](CCSC)C(=O)N[C@@H](CCCNC(=N)N)C(=O)N[C@H](C(=O)N[C@@H](Cc1ccccc1)C(=O)N[C@@H](CC(C)C)C(=O)N[C@@H](CCCNC(=N)N)C(=O)N[C@@H](CCCNC(=N)N)C(N)=O)[C@@H](C)O (H-KILRGVSKKIMRTFLRR-NH2) | 8 (≈ 3.81 µM) | 8 (≈ 3.81 µM) | 128 (≈ 60.9 µM) | 128 (≈ 60.9 µM) | 64 (≈ 30.5 µM) | < 5 | 16 (≈ 7.61 µM) | 16 (≈ 7.61 µM) | 8 (≈ 3.81 µM) | 16 (≈ 7.61 µM) | 8 (≈ 3.81 µM) | 8 (≈ 3.81 µM) | 4 (≈ 1.9 µM) | inactive | 32 (≈ 15.2 µM) | 32 (≈ 15.2 µM) | 128 (≈ 60.9 µM) | 128 (≈ 60.9 µM) |  |
| CC[C@H](C)[C@H](NC(=O)[C@H](CCCNC(=N)N)NC(=O)[C@H](CCCCN)NC(=O)[C@H](CO)NC(=O)[C@@H](NC(=O)CNC(=O)[C@H](CCCNC(=N)N)NC(=O)[C@H](CC(C)C)NC(=O)[C@@H](NC(=O)[C@@H](N)CCCCN)[C@@H](C)CC)C(C)C)C(=O)N[C@@H](CC(C)C)C(=O)N[C@H](C(=O)NCC(=O)N[C@@H](CCCCN)C(=O)N[C@@H](CCCCN)C(N)=O)[C@@H](C)O (H-KILRGVSKRILTGKK-NH2) | > 64 | > 64 | 128 (≈ 75.5 µM) | 128 (≈ 75.5 µM) |  | < 5 |  | > 128 | > 128 | > 128 | > 128 | 100 (≈ 59 µM) | 50 (≈ 29.5 µM) | inactive | > 256 | > 256 | > 256 | > 256 |  |
| POLYMYXIN B | 0.5 | 0.5 | 0.25 | 0.25 | 0.5 |  | 0.25 |  |  |  |  | 3.2 | 2.4 | inactive |  |  |  |  | MBC [6]: 0.5 µg/mL; MIC [6]: 0.5 µg/mL; MBC [7]: 0.125 µg/mL; MIC [7]: 0.125 µg/mL; MBC [10]: 0.5 µg/mL; MIC [10]: 0.5 µg/mL; MIC [11]: 32 µg/mL |
